Reference: patent publication US20160031878A1, “RADIOLABELED COMPOUNDS” (Hoffmann-La Roche Inc., priority 2013, published 2016)

Biological target: T1, human PDE10A full length (Homo sapiens, UniProt Q9Y233)
T1 construct: purchased Enzo Life Science, Lausen, Switzerland SE-534
Test: human PDE10A full length Scintillation Proximity Assay (SPA)
Type: biochemical
Settings: 50 nM cGMP + 50 nM [3H]-cGMP, 20 min at room temperature, read-out: PDE10A inhibition IC50
Protocol: The following test was carried out in order to determine the activity of the compounds of the present invention. PDE10A activity of the compounds of the present invention was determined using a Scintillation Proximity Assay (SPA)-based method similar to the one previously described (Fawcett, L. et al., Proc. Natl. Acad. Sci. USA 2000, 97(7), 3702-3707).
The human PDE10A full length assay was performed in 96-well micro titer plates. The reaction mixture of 50 μl contained 20 mM HEPES pH=7.5/10 mM MgCl2/0.05 mg/ml BSA (Sigma cat. # A-7906), 50 nM cGMP (Sigma, cat. # G6129) and 50 nM [^3H]-cGMP (GE Healthcare, cat. # TRK392 S.A. 13.2 Ci/mmol), 3.75 ng/well PDE10A enzyme (Enzo Life Science, Lausen, Switzerland cat # SE-534) with or without a specific test compound. A range of concentrations of the potential inhibitor was used to generate data for calculating the concentration of inhibitor resulting in 50% of the effect (e.g. IC50, the concentration of the competitor inhibiting PDE10A activity by 50%). Non-specific activity was tested without the enzyme. The reaction was initiated by the addition of the substrate solution (cGMP and [^3H]-cGMP) and allowed to progress for 20 minutes at room temperature. […] Afterwards, radioactive counts were measured on a Perkin Elmer TopCount Scintillation plate reader.

T1 sequence (Q9Y233 1-779 isoform Q9Y233-1): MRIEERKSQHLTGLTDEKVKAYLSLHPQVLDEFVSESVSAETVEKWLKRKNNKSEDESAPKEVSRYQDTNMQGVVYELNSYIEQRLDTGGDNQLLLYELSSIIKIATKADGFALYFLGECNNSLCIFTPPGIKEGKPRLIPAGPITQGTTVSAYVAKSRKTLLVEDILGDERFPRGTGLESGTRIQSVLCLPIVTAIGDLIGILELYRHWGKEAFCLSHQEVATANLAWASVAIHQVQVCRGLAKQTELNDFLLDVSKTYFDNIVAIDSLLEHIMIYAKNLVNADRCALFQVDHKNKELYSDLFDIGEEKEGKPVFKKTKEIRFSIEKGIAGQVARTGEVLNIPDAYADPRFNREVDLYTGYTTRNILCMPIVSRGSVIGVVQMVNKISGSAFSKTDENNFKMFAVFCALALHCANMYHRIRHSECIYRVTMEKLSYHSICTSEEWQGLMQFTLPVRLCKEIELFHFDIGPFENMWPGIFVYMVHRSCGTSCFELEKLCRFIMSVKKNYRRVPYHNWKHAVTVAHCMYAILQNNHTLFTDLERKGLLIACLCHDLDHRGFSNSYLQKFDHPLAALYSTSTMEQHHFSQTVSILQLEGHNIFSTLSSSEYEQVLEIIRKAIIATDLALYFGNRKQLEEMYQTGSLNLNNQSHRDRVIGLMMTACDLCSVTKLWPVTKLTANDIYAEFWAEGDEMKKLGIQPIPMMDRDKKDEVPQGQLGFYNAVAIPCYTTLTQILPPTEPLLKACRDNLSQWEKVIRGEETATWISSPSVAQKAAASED

IC50 [nM]	Compound
5.1	COc1cccc(-c2nc3cc(NC(=O)c4c(C(=O)N5CCOCC5)cnn4C)ccn3n2)c1 [Compound 21, 2-Methyl-4-(morpholine-4-carbonyl)-2H-pyrazole-3-carboxylic acid [2-(3-methoxy-phenyl)-[1,2,4]triazolo[1,5-a]pyridin-7-yl]-amide]
0.94	CN(CCF)C(=O)c1cnn(C)c1C(=O)Nc1ccn2nc(-c3ccccc3)nc2c1 [Compound 4, 2-methyl-2H-pyrazole-3,4-dicarboxylic acid 4-[(2-fluoro-ethyl)-methyl-amide]3-[(2-phenyl-[1,2,4]triazolo[1,5-a]pyridin-7-yl)-amide]]
